Measured values published in patent publication EP4806903A1, “WHOLE-PROCESS TARGETING POLYPEPTIDE, PHARMACEUTICAL COMPLEX THEREOF, DRUG DELIVERY SYSTEM AND USE THEREOF” (Fudan University, priority 2023, dated 2025).
In brackets after ≈: the same amount, converted by molar mass. Where no end group is shown, it is not given here. [ ]: non-standard residue; d: D form.

Experiments:
GRP78 protein [1] = test: Western blot of GRP78 protein on the cell membrane of U87 cells; format: cell-based
Method: After cells were subjected to various treatments, the culture medium was removed, and the cells were washed twice with pre-cooled PBS. The cells were then scraped off and collected into an EP tube. Membrane proteins were extracted using a cell membrane protein extraction kit, followed by centrifugation at 12,000 rpm at 4°C to obtain the supernatant, which was stored for later use. The total protein concentration was determined using the BCA assay, after which the sample was mixed with 5× loading buffer at a ratio of 4:1 and heated to denature the proteins. The samples were stored at -20°C for future use. Samples containing approximately 40 µg of protein were subjected to 15% polyacrylamide gel electrophoresis and then transferred onto polyvinylidene fluoride (PVDF) membranes. […]
After U87 cells were treated with free DOX at different concentrations for 48 hours, membrane proteins were extracted and detected using the method described above.
After U87 cells were treated with different concentrations of TMZ for 48 hours, membrane proteins were extracted and detected using the method described above.
After U87 cells were treated with 5 µg/mL TMZ for varying durations, membrane proteins were extracted and analyzed using the method described above.

GRP78 protein [2] = test: Western blot of GRP78 protein in tumors of orthotopic glioma mice; format: in vivo, nude mice; settings: TMZ 10 mg/mL by gavage, after 48 hours
in situ glioma = test: Efficacy of TMZ combined with peptide-DOX complex in in situ glioma; settings: TMZ 10 mg/kg by gavage Days 3-21; pHA-AO1HX-VAP-DOX equivalent to 3 mg/kg DOX tail vein Days 5-23; n = 10
Method: The in situ glioma model was established as above, with the day of modeling set as Day 0. On Days 3, 5, 7, 9, 11, 13, 15, 17, 19, and 21, mice were administered TMZ by gavage at a single dose of 10 mg/kg.

[3] = Maximum tolerated dose study; parameters: species or system Male Balb/c mice; settings: mouse, in vivo, iv; tail vein, 14 days monitoring; dose at which no mice died; expressed as DOX
Method: The body weight changes of the mice were recorded daily (relative body weight change = daily body weight / initial body weight), with continuous monitoring for 14 days to observe whether any mice died.

U87 orthotopic glioma = test: In vivo pharmacodynamic study, survival of U87 orthotopic glioma mice; parameters: species or system nude mice; settings: single dose of DOX 1 mg/kg, intravenous, every other day from day 5
Method: Approximately 20 g nude mice were anesthetized and fixed onto a stereotaxic apparatus. Orthotopic glioma mouse model was established by injecting 5 µL of U87 cell suspension (5×10^5 cells) with microsyringe into the striatum of the mice (0.6 mm anteroposterior to the bregma, 1.8 mm lateral to the midline, and 3 mm deep). On day 5 after tumor implantation, the mice were randomly divided into four groups, with 10 mice per group.

Tumor cells U87 = test: Intracellular DOX detection in U87 cells; format: cell-based; settings: 4 hours, 37°C
Method: Tumor cells U87 in the logarithmic growth phase and macrophages RAW264.7, both cultured as monolayers, were detached from the culture dishes by digestion with 0.25% trypsin. The single-cell suspensions were prepared in DMEM medium supplemented with 10% fetal bovine serum. Each well of a 6-well plate was seeded with 5 × 10^5 cells in a volume of 2 mL per well. The plates were then transferred to a CO2 incubator and cultured overnight at 37°C under conditions of 5% CO2 and saturated humidity. After overnight incubation, the culture medium was wholly aspirated from each well. DOX, pHA-AHX-VAP-DOX, and pHA-AOnHX-VAP-DOX (n = 1, 2, 3, 5) solutions were added to the wells, and the cells were incubated at 37°C for 4 hours. The supernatant was then discarded. Following cell collection by trypsinization, the cells were washed three times with PBS and counted. After the final wash, any remaining supernatant was wholly removed. To the cell pellet, acidified methanol (Vmethanol : Vmethanoic acid = 98:2) was added, and the cells were subjected to sonication. After centrifugation at 10,000 rpm for 10 minutes, the supernatant was collected and analyzed for DOX concentration.

[4] = Saturation solubility in PBS; format: physicochemical; settings: aqueous buffer, PBS pH 7.4, 37°C, calculated based on DOX
Method: The mixture was incubated at 37°C for 24 hours, then filtered through a membrane of 0.22 µm. The filtrates were subsequently diluted 10-fold and 20-fold, respectively, and the concentration of DOX was measured.

[5] = biological target: glucose-regulated protein GRP78 (Homo sapiens, UniProt P11021); settings: previously validated by research team; cited from earlier work
[6] = In vivo distribution in nude mouse model of orthotopic glioma; parameters: species or system nude mice; settings: DOX dose 5 mg/kg, tail vein, 30 minutes; compared to free DOX
Method: Approximately 22 g nude mice were anesthetized and fixed onto a stereotaxic apparatus. An orthotopic glioma mouse model was established by injecting 5 µL of U87 cell suspension (8×10^5 cells) with microsyringe into the striatum of the mice (0.6 mm anteroposterior to the bregma, 1.8 mm lateral to the midline, and 3 mm ventral to the surface). Ten days after tumor implantation, the mice were administered DOX (5 mg/kg) or pHA-AOnHX-VAP-DOX (n = 1, 2, 3, 5; DOX dose: 5 mg/kg) via tail vein injection. Thirty minutes later, the mice were anesthetized, perfused with PBS, and the major organs including the brain, heart, liver, spleen, lungs, and kidneys were collected. The tissues from each organ were blotted dry with filter paper and weighed. Then, according to the weight of each organ, a specific volume of isopropanol containing 0.075 M HCl and 10% water was added, followed by homogenization. After overnight incubation at 4°C, the samples were centrifuged, and the supernatants were collected for analysis. […] As depicted in Figure 30, the accumulation of DOX in the heart was reduced by pHA-AOnHX-VAP-DOX (n = 1, 2, 3, 5), while the drug concentration in the blood was increased.

Sequence of glucose-regulated protein GRP78 (P11021 19-654): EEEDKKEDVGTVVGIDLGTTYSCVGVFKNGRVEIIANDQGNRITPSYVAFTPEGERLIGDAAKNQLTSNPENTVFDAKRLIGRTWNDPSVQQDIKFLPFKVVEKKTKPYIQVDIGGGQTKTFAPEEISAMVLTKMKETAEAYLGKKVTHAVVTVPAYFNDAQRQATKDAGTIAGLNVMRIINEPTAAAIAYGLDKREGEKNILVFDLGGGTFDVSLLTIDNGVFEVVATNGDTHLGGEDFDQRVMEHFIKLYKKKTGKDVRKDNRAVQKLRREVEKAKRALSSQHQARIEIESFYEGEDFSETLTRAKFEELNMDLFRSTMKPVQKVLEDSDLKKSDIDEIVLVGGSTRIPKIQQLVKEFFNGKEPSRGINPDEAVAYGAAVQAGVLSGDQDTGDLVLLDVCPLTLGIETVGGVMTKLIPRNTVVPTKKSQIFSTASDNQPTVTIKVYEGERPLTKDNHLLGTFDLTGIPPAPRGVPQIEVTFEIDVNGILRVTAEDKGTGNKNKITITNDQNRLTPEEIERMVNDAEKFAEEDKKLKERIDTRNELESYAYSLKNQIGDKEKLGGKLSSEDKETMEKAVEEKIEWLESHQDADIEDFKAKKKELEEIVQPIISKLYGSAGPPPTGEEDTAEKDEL

For `Cn1nnc2c(C(N)=O)ncn2c1=O` [TMZ, temozolomide], which “time after which GRP78 protein on the cell membrane began to significantly upregulate” value (GRP78 protein [1]; 5 µg/mL TMZ, varying durations up to 48 hours) is on record?
The value was 12 h.

What about the “expression of GRP78 protein in tumor tissue relative to control group” value (GRP78 protein [2]) of the same molecule?
The value was 1.45 times.

What about the median survival time (in situ glioma) of the same molecule?
The median survival time was 48 days.

What does the source list for `COc1cccc2c1C(=O)c1c(O)c3c(c(O)c1C2=O)C[C@@](O)(C(=O)CO)C[C@@H]3O[C@H]1C[C@H](N)[C@H](O)[C@H](C)O1` [DOX, doxorubicin]?
MTD at 336 h [3]: ~10 mg/kg; median survival time (U87 orthotopic glioma): 35.5 days; expression of GRP78 protein on the cell membrane surface of U87 cells (GRP78 protein [1]; different concentrations, 48 hours): significantly upregulated; uptake by U87 cells (intracellular DOX) (Tumor cells U87): higher cellular uptake; solubility at 24 h [4]: 220 ± 30 µg/mL (≈ 405 µM)

With “^LVAP: L-type amino acid sequence SNTRVAP, SEQ ID NO: 1” as the molecule, how does the “binding affinity to glucose-regulated protein GRP78” value (shortened to “binding affinity”) [5] read?
The value was “high binding affinity”.

Which “binding affinity” value [5] does the source give for “^SVAP: D-type amino acid sequence ^DS^DN^DT^DR^DV^DA^DP, SEQ ID NO: 4 (SNTRVAP; all D-amino acids; VARIANT 1..7: note = D type amino acid)” here?
Its value is “high binding affinity”.

For “^DVAP: D-type amino acid sequence ^DP^DA^DV^DR^DT^DN^DS, SEQ ID NO: 3 ([dP][dA][dV][dR][dT][dN][dS])”, which “binding affinity” value [5] is on record?
Its value is “high binding affinity”.

For `COc1cccc2c1C(=O)c1c(O)c3c(c(O)c1C2=O)C[C@@](O)(C(CO)=NNC(=O)CCCCCN1C(=O)CC(SC[C@H](NC(=O)CCOCCOCCNC(=O)c2ccc(O)cc2)C(=O)N2CCC[C@@H]2C(=O)N[C@H](C)C(=O)N[C@@H](C(=O)N[C@H](CCCNC(=N)N)C(=O)N[C@@H](C(=O)N[C@H](CC(N)=O)C(=O)N[C@H](CO)C(=O)O)[C@H](C)O)C(C)C)C1=O)C[C@@H]3O[C@H]1C[C@H](N)[C@H](O)[C@H](C)O1` (stereo partly drawn) [pHA-AO2HX-VAP-DOX], which “brain accumulation of DOX” value [6] is on record?
Its value is “greatest increase”.
